Series [1] addresses Proto-oncogene tyrosine-protein kinase Src (Homo sapiens, UniProt P12931). Nature of the series: Inhibition of SRC.
Series [2] in a line: (§1) AUC in mouse at 20 mg/kg, po. In kind it is ADME, organism-based, Plasma. The arrangement: dose 20 mg/kg, route oral. Particulars: mouse, plasma, po, 20 mg/kg.
The target in series [3] is Tyrosine-protein kinase HCK (Homo sapiens, UniProt P08631). Nature of the series: Inhibition of HCK.
Series [4] concerns the target Tyrosine-protein kinase Lck (Homo sapiens, UniProt P06239). Nature of the series: Inhibition of LCK.
Series [5] is described as follows: Metabolic stability in mouse assessed as extraction ratio at 20 mg/kg, po. In kind it is ADME, organism-based. The arrangement: dose 20 mg/kg, route oral. Conditions: in vivo.
The test system of series [6] is Mus musculus. Described as §1. The format is ADME, organism-based, Plasma. The arrangement: dose 20 mg/kg, route oral.
Series [7] concerns BaF3. The series can be described thus: Cytotoxicity against mouse BAF3 cells. In kind it is functional, cell-based.

The structures appear in SMILES notation.

Sequence of Proto-oncogene tyrosine-protein kinase Src (P12931 2-536 limits assumed): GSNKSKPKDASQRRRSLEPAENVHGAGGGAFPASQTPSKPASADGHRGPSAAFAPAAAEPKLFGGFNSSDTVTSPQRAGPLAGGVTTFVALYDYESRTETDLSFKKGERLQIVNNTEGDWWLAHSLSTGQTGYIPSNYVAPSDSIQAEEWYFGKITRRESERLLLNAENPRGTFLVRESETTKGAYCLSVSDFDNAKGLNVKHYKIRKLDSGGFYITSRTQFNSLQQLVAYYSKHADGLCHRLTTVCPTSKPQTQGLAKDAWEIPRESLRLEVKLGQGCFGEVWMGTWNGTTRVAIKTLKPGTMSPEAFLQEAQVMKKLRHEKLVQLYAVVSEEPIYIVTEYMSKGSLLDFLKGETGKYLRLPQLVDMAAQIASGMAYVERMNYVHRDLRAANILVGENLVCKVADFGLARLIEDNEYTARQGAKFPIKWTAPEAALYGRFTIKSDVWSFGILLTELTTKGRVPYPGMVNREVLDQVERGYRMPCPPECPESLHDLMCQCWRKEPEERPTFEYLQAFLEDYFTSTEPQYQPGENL
Sequence of Tyrosine-protein kinase Lck (P06239 whole entry): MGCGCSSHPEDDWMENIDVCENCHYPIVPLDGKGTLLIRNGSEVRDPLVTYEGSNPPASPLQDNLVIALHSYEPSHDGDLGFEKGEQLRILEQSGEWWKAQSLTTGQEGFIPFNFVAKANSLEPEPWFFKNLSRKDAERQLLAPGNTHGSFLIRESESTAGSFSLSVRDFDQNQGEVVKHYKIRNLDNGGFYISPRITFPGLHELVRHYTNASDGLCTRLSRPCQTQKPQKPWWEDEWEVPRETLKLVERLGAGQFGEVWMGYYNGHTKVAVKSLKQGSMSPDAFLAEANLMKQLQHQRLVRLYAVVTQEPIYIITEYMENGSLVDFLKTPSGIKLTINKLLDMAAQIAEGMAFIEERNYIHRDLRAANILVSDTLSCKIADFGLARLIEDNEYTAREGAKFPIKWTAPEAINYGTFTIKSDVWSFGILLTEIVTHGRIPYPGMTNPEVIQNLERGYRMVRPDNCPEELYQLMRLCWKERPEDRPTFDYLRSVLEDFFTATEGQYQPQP
Sequence of Tyrosine-protein kinase HCK (P08631 whole entry): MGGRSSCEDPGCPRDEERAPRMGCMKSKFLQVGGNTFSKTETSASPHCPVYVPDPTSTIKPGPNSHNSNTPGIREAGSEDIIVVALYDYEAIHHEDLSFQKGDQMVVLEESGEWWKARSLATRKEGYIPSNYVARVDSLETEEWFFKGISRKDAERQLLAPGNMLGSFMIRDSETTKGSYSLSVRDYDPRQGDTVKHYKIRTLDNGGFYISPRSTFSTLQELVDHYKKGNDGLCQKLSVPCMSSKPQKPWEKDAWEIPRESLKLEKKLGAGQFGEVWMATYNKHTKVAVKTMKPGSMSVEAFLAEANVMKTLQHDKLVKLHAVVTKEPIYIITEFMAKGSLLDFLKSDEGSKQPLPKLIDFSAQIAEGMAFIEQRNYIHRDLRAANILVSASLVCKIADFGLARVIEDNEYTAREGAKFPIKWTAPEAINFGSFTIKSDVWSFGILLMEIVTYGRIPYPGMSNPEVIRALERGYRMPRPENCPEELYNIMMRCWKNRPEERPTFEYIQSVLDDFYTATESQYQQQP

Take `CCN(CC)CCCCNc1cc(-n2c(Nc3cc(NC(=O)c4cccc(C(F)(F)F)c4)ccc3C)nc3ccccc32)ncn1`: the IC50 – broadly, the concentration that inhibits the measured activity by half – in series [1] turned out to be 97 nM; in series [3], 430 nM; in series [4], 12 nM. In addition, in series [2], the AUC is 0.368 µM·h. The hepatic extraction ratio in series [5] was less than 0.3.
Regarding `Cc1ccc(NC(=O)c2cccc(C(F)(F)F)c2)cc1Nc1nc2ccccc2n1-c1cc(N[C@H]2CC[C@H](N)CC2)ncn1`, the IC50 in series [1] is 1720 nM; in series [3] it was 450 nM; in series [4], 71 nM. The hepatic extraction ratio in series [5] is 0.383.
For `COCCNc1cc(-n2c(Nc3cc(NC(=O)c4cccc(C(F)(F)F)c4)ccc3C)nc3ccccc32)ncn1`, the 50% inhibitory concentration (IC50) worked out at 1690 nM in series [1], 405 nM in series [3] and 135 nM in series [4]. In series [6], this compound came in with an AUC of 2687 nmol·h/L.
`Cc1ccc(NC(=O)c2ccc(C(C)(C)C)s2)cc1Nc1nc2ccccc2n1-c1cc(N)ncn1`: the IC50 in series [1] came to 916 nM; in series [3], 84 nM; in series [7] it was 6 nM; in series [4] it was 43 nM.

Values taken from ChEMBL document CHEMBL1154389, “Discovery of pyrimidine benzimidazoles as Src-family selective Lck inhibitors. Part II” (Bioorg Med Chem Lett, 2009).
